Where “and” joins values, the source holds several entries; their conditions need not be identical. Equal entries are not always repeated. Inconclusive results and toxic doses are left out. Rule as the data show it: active = T/C of 150% or more; inactive = T/C below 125%.
Tested on: L1210 leukemia ip in BDF1 mice, survival T/C
Test: NCI In Vivo Anticancer Drug Screen. Data for tumor model L1210 Leukemia (intraperitoneal) in B6D2F1 (BDF1) mice
Details: endpoint: mean survival time, higher = longer survival
How it was run: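 Transplanted-tumor mice were given test agent; controls received vehicle only. Survival readings from the two groups were divided (treated over control).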

[1] = dose: 100.0 mg/kg/injection, schedule: Q04DX003 (ip), vehicle: saline
[2] = dose: 200.0 mg/kg/injection, schedule: Q04DX003 (ip), vehicle: saline
[3] = dose: 400.0 mg/kg/injection, schedule: Q04DX003 (ip), vehicle: saline
[4] = dose: 50.0 mg/kg/injection, schedule: Q01DX009 (ip), vehicle: saline
[5] = dose: 100.0 mg/kg/injection, schedule: Q01DX009 (ip), vehicle: saline
[6] = dose: 200.0 mg/kg/injection, schedule: Q01DX009 (ip), vehicle: saline
[7] = dose: 100.0 mg/kg/injection, schedule: Q04DX003 (ip), vehicle: Klucel (hydroxypropylcellulose) (HPC)
[8] = dose: 200.0 mg/kg/injection, schedule: Q04DX003 (ip), vehicle: Klucel (hydroxypropylcellulose) (HPC)
[9] = dose: 400.0 mg/kg/injection, schedule: Q04DX003 (ip), vehicle: Klucel (hydroxypropylcellulose) (HPC)
[10] = dose: 100.0 mg/kg/injection, schedule: Q01DX001 (ip), vehicle: carboxymethylcellulose (CMC)
[11] = dose: 200.0 mg/kg/injection, schedule: Q01DX001 (ip), vehicle: carboxymethylcellulose (CMC)
[12] = dose: 400.0 mg/kg/injection, schedule: Q01DX001 (ip), vehicle: carboxymethylcellulose (CMC)
[13] = dose: 100.0 mg/kg/injection, schedule: Q01DX001 (ip), vehicle: saline
[14] = dose: 100.0 mg/kg/injection, schedule: Q01DX009 (ip), vehicle: other
[15] = dose: 200.0 mg/kg/injection, schedule: Q01DX001 (ip), vehicle: saline
[16] = dose: 200.0 mg/kg/injection, schedule: Q01DX009 (ip), vehicle: other
[17] = dose: 400.0 mg/kg/injection, schedule: Q01DX001 (ip), vehicle: saline
[18] = dose: 400.0 mg/kg/injection, schedule: Q01DX009 (ip), vehicle: other
[19] = dose: 50.0 mg/kg/injection, schedule: Q01DX001 (ip), vehicle: carboxymethylcellulose (CMC)
[20] = dose: 100.0 mg/kg/injection, schedule: Q04DX003 (ip), vehicle: saline with Tween-80
[21] = dose: 200.0 mg/kg/injection, schedule: Q04DX003 (ip), vehicle: saline with Tween-80
[22] = dose: 400.0 mg/kg/injection, schedule: Q04DX003 (ip), vehicle: saline with Tween-80
[23] = dose: 100.0 mg/kg/injection, schedule: Q01DX009 (ip), vehicle: saline with Tween-80
[24] = dose: 200.0 mg/kg/injection, schedule: Q01DX009 (ip), vehicle: saline with Tween-80
[25] = dose: 400.0 mg/kg/injection, schedule: Q01DX009 (ip), vehicle: saline with Tween-80
[26] = dose: 50.0 mg/kg/injection, schedule: Q01DX001 (ip), vehicle: saline

Measured: T/C

CCOC(=O)C1C2c3ccccc3C(C1C(=O)OCC)[n+]1ccccc12 (stereo not drawn)
inactive: [1] 100 % of control | [2] 97 % of control | [3] 100 % of control

C[Si](C)(C)O[Si](C)(C)c1ccccc1
inactive: [4] 102 % of control | [5] 88 % of control | [1] 103 % of control | [6] 99 % of control | [2] 109 % of control | dose: 400.0 mg/kg/injection, schedule: Q01DX009 (ip), vehicle: saline 96 % of control | [3] 95 % of control

COC(=O)COc1ccc(Cl)cc1Cl
inactive: dose: 100.0 mg/kg/injection, schedule: Q04DX002 (ip), vehicle: saline 100 % of control | dose: 200.0 mg/kg/injection, schedule: Q04DX002 (ip), vehicle: saline 107 % of control | dose: 400.0 mg/kg/injection, schedule: Q04DX002 (ip), vehicle: saline 100 % of control

CCn1cc(C(=O)O)c(=O)c2ccc(C)nc21
inactive: [7] 97 % of control | [8] 96 % of control | [9] 94 % of control

O=C(N/N=C/c1cc(Cl)ccc1O)C(O)(c1ccccc1)c1ccccc1
inactive: [10] 106 % of control | [11] 97 % of control | [12] 101 % of control

NC(N)=N/N=C/c1ccc(O)c(C(=O)O)c1
inactive: dose: 15.0 mg/kg/injection, schedule: Q01DX Z (ip), vehicle: methylcellulose (MC) 92 % of control | dose: 30.0 mg/kg/injection, schedule: Q01DX Z (ip), vehicle: methylcellulose (MC) 94 % of control | dose: 60.0 mg/kg/injection, schedule: Q01DX Z (ip), vehicle: methylcellulose (MC) 106 % of control | dose: 60.0 mg/kg/injection, schedule: Q01DX Z (oral), vehicle: methylcellulose (MC) 108 % of control | dose: 120.0 mg/kg/injection, schedule: Q01DX Z (ip), vehicle: methylcellulose (MC) 88 % of control | dose: 120.0 mg/kg/injection, schedule: Q01DX Z (oral), vehicle: methylcellulose (MC) 113 % of control | dose: 250.0 mg/kg/injection, schedule: Q01DX Z (oral), vehicle: methylcellulose (MC) 89 % of control

Cc1ccc2cccc3c(=O)c4cccc5cccc(sc1c23)c54
inactive: [13] 88 % of control | [14] 92 % of control | [15] 97 % of control | [16] 92 % of control | [17] 89 % of control | [18] 92 % of control

CSc1nccc(Cl)n1
inactive: [19] 105 % of control | [10] 102 % of control | [11] 96 % of control | [12] 91 % of control

CS\C(N)=N/N=C/C(C)=N/N=C(/N)SC
inactive: dose: 15.0 mg/kg/injection, schedule: Q01DX Z (ip), vehicle: saline 98 % of control | dose: 30.0 mg/kg/injection, schedule: Q01DX Z (ip), vehicle: saline 100 % of control | dose: 60.0 mg/kg/injection, schedule: Q01DX Z (ip), vehicle: saline 100 % of control and 105 % of control | dose: 120.0 mg/kg/injection, schedule: Q01DX Z (ip), vehicle: saline 100 % of control and 105 % of control | dose: 240.0 mg/kg/injection, schedule: Q01DX Z (ip), vehicle: saline 100 % of control | dose: 480.0 mg/kg/injection, schedule: Q01DX Z (ip), vehicle: saline 105 % of control

NC(=NCCCC(NCc1ccccc1)C(=O)O)N[N+](=O)[O-] (stereo not drawn)
inactive: dose: 75.0 mg/kg/injection, schedule: Q01DX009 (ip), vehicle: other 107 % of control | [1] 100 % of control | dose: 150.0 mg/kg/injection, schedule: Q01DX009 (ip), vehicle: other 111 % of control | [2] 102 % of control | dose: 300.0 mg/kg/injection, schedule: Q01DX009 (ip), vehicle: other 107 % of control | [3] 104 % of control | dose: 600.0 mg/kg/injection, schedule: Q01DX009 (ip), vehicle: other 105 % of control

OC(Nc1ncccn1)C(Cl)(Cl)Cl (stereo not drawn)
inactive: dose: 100.0 mg/kg/injection, schedule: Q01DX009 (ip), vehicle: saline sonified 96 % of control | [7] 95 % of control | dose: 200.0 mg/kg/injection, schedule: Q01DX009 (ip), vehicle: saline sonified 94 % of control | [8] 102 % of control | dose: 400.0 mg/kg/injection, schedule: Q01DX009 (ip), vehicle: saline sonified 89 % of control | [9] 101 % of control

COC(=O)c1ccccc1NC(=O)C(Cl)Cl
inactive: [14] 106 % of control | [16] 93 % of control | [18] 98 % of control

OCC(O)C(O)C(O)C1SCCS1 (stereo not drawn)
inactive: [13] 103 % of control | [15] 106 % of control | [17] 104 % of control

O=C(Cl)c1cc2ccccc2o1
inactive: [20] 89 % of control | [21] 92 % of control | [22] 95 % of control

CC[N+]12CC=C(CO)C1C(O)CC2 (stereo not drawn)
inactive: dose: 50.0 mg/kg/injection, schedule: Q01DX009 (ip), vehicle: Klucel (hydroxypropylcellulose) (HPC) 100 % of control | dose: 100.0 mg/kg/injection, schedule: Q01DX009 (ip), vehicle: Klucel (hydroxypropylcellulose) (HPC) 95 % of control | dose: 200.0 mg/kg/injection, schedule: Q01DX009 (ip), vehicle: Klucel (hydroxypropylcellulose) (HPC) 95 % of control

Nc1ccc(S(=O)(=O)O)c2cccc(O)c12
inactive: dose: 100.0 mg/kg/injection, schedule: Q04DX002 (ip), vehicle: carboxymethylcellulose (CMC) 103 % of control | [7] 101 % of control | dose: 200.0 mg/kg/injection, schedule: Q04DX002 (ip), vehicle: carboxymethylcellulose (CMC) 107 % of control | [8] 91 % of control | [9] 101 % of control

CC(C)(C)C1=CC(=O)N2CC=CCC2(C#N)C1=O (stereo not drawn)
inactive: dose: 50.0 mg/kg/injection, schedule: Q01DX001 (ip), vehicle: Klucel (hydroxypropylcellulose) (HPC) 99 % of control | dose: 100.0 mg/kg/injection, schedule: Q01DX001 (ip), vehicle: Klucel (hydroxypropylcellulose) (HPC) 99 % of control | dose: 200.0 mg/kg/injection, schedule: Q01DX001 (ip), vehicle: Klucel (hydroxypropylcellulose) (HPC) 99 % of control

O=C(O)C(C(=O)c1cccc([N+](=O)[O-])c1)C(=O)c1cccc([N+](=O)[O-])c1
inactive: [11] 100 % of control | [12] 94 % of control

CCOC(=O)C(=[N+]=[N-])C(F)(F)F
inactive: [4] 102 % of control | [5] 102 % of control | [6] 95 % of control

Cc1ccc(C)c(NC(=O)N(C2CCCCC2)C2CCCCC2)c1
inactive: [23] 112 % of control | [20] 100 % of control | [24] 101 % of control | [21] 94 % of control | [25] 107 % of control | [22] 97 % of control

Cc1ccc(S(=O)(=O)OCCN(CCOS(=O)(=O)c2ccc(C)cc2)c2cccc([N+](=O)[O-])c2)cc1
inactive: [26] 97 % of control | [13] 100 % of control | [15] 97 % of control | [17] 88 % of control

O=C1c2ccccc2C(=O)C2C1C(c1ccccc1)N(c1ccccc1)C2c1ccccc1 (stereo not drawn)
inactive: [26] 94 % of control | [13] 105 % of control | [15] 94 % of control | [17] 103 % of control

CC(=O)Nc1ccc(NC(=O)c2ccc(F)cc2)cc1
inactive: dose: 100.0 mg/kg/injection, schedule: Q01DX009 (ip), vehicle: gum acacia 91 % of control | dose: 200.0 mg/kg/injection, schedule: Q01DX009 (ip), vehicle: gum acacia 89 % of control | dose: 400.0 mg/kg/injection, schedule: Q01DX009 (ip), vehicle: gum acacia 102 % of control

N#CCCN1CCCC(=O)NC1=O
inactive: [23] 103 % of control | [1] 105 % of control | [24] 94 % of control | [2] 103 % of control | [25] 97 % of control | [3] 100 % of control

CC(=O)N1c2ccccc2Sc2ccc(C(=O)CCl)cc21
inactive: [19] 96 % of control | [10] 98 % of control | [11] 96 % of control | [12] 98 % of control

CN(CCN1CCCCC1)C(=O)C(c1ccccc1)C1CCCCC1 (stereo not drawn)
inactive: dose: 75.0 mg/kg/injection, schedule: Q01DX001 (ip), vehicle: saline 98 % of control

— PubChem BioAssay AID248 (DTP/NCI, 2004)
